From publication PMC12207533, “Structure-guided design of a methyltransferase-like 3 (METTL3) proteolysis targeting chimera (PROTAC) incorporating an indole–nicotinamide chemotype” (RSC Medicinal Chemistry, 2025)

Molecular target: T1, METTL3 (Homo sapiens, UniProt Q86U44)
T1 construct: endogenous in cells; host or cells: MOLM-13
Test: Immunoblotting of METTL3 protein levels in MOLM-13 cells
Format: cell-based
Conditions: MOLM-13, 0.1-10 μM, 16 h
Experimental: MOLM-13 were seeded in 12-well cell culture plates at a density of 1 × 10^6 cells per mL and treated with DMSO (final: 0.1%) or different concentrations of PROTAC degraders in DMSO at the indicated times. Treatments were conducted in biological triplicate with varying passages of MOLM-13 cells. The cells were harvested by centrifugation at 500g for 5 min and washed with PBS. The cells were lysed with RIPA lysis buffer with the addition of protease inhibitor (1× cOMPLETE), and insoluble cellular parts were separated by centrifugation (12 000g for 10 min), subsequently, the supernatant was boiled with 1× Laemmli sample buffer (Carl Roth) for 5 min at 95 °C. Proteins were separated by SDS–PAGE on 4–20% Criterion™ TGX™ Precast Protein Gels (Bio-Rad) and transferred to Amersham™ Protean® 0.45 μm nitrocellulose membrane (Cytiva) using semi-dry transfer (25 V, 1 A, Towbin buffer). The membrane was blocked with 5% milk (Carl Roth) in TBST buffer and incubated with the following primary antibodies: Anti-METTL3 (1 : 1000, Abcam, ab195352), anti-METTL14 (1 : 1000, Abcam, ab220030), anti-Bcl2 (1 : 1000, Cell Signaling Technology [CST], EPR16891), anti-Mcl-1 (1 : 1000, CST, 5453 T), anti-Bcl-XL (1 : 1000, CST, 2764 T), anti-vinculin (1 : 1000, CST, 13901) or anti-GAPDH (1 : 5000, CST, D17C4) overnight at 4 °C. Subsequently, the membrane was incubated for 1 h at RT with secondary antibodies: anti-rabbit (1 : 2000, VWR, NA934) or anti-mouse (1 : 2000, VWR, 102646-160). The protein bands were detected via chemiluminescence using Pierce™ ECL western blotting substrate and a Fusion FX imaging system (Vilber). The ImageLab software (Bio-Rad) was used for band quantification.

T1 sequence (Q86U44 whole entry): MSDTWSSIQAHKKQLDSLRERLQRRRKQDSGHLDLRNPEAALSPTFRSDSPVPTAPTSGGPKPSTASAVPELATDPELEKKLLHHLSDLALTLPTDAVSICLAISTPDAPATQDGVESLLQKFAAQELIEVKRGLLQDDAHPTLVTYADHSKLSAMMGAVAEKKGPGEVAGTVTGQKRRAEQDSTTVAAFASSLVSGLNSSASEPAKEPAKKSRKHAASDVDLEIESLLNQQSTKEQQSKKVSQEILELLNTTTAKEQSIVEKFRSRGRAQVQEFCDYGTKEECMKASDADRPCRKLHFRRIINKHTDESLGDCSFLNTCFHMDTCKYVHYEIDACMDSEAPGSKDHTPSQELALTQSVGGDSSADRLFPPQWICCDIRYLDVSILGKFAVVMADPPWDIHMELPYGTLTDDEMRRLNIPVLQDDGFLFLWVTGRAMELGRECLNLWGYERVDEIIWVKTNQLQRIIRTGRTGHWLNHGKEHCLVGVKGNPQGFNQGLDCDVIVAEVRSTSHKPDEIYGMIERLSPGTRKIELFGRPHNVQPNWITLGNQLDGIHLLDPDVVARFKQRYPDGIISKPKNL

COc1cc2c(cc1Cc1cccc(Cl)c1F)c(=O)c(C(=O)O)cn2[C@H](CO)C(C)C [Elvitegravir, reference compound]
METTL3 degradation (Western blot screening): do not func?on as METTL3 degraders

CC1(C)CCN(Cc2ccc3nc(Cn4cc(-c5cc(Br)cc6[nH]ncc56)nn4)cn3c2)CC1 [STM3006, reference compound]
METTL3 degradation (Western blot screening): do not func?on as METTL3 degraders
